# From US20100248365A1, “GANGLIOSIDE BIOSYNTHESIS MODULATORS” (ZACHARON PHARMACEUTICALS, INC., priority 2009, published 2010)
# Assays:
# Format in all cases: cell-based
# NCI-H82 cells = assay: Ganglioside profiling of compound-treated NCI-H82 cells (GSL extraction, 2AA labeling, NP-HPLC); conditions: for cellular inhibition of specific ganglioside biosynthesis: NCI-H82 cells, 25, 12 and 6 uM, 96 hours, HPLC peaks; for preferential reduction effect on gangliosides GM3 and GD3: relative to other ganglioside species
# Method: NCI-H82 cells were cultured in 6 well plates and treated with compounds at a concentration of 25, 12 and 6 uM in triplicates. PDMP (1-Phenyl-2-decanoylamino-3-morpholino-1-propanol, HCl, EMD #513100) at 25, 12, 6 uM and DGNJ (N-(n-Butyl) deoxygalactonojirimycin, EMD #203994) at 50 uM were used as controls. After 96 hours of compounds treatment the cells were harvested for ganglioside profiling. The suspension cells were centrifuged and the pellets washed once with PBS. Cells were resuspended in 1 ml of PBS, 1/100 of cells were taken to check the cell viability (Viacount)) and for glycosphingolipid (GSL) quantitation and normalization. 1/10 of cells were taken for CTB-FACS to check GM1 expression. The remaining cells were subjected to the ganglioside extraction procedure follow the protocol described by R. Schnaar (Methods in Enzymology, 230: 348-370, 1994).
# Briefly, the cells were pelleted by centrifugation and resuspended in cold distilled-water. The cell suspension was homogenized with Polytron homogenizer. Glycolipids were extracted with chloroform:methanol:water at 4:8:3 ratio. Glycolipids were partitioned by adding 0.173 volume of water to extracted the supernatant. The upper […] phase (glycolipids) was dried in a vacuum centrifuge (SpeedVac).
# Glycans were released from the glycolipids using the enzyme EGCase II (Sigma, Cat #E9030) as described by the manufacture. Released glycans were labeled with 2AA (2-Anthranilic acid, Sigma, Cat #A89804) following the procedures described by D. Neville (Analytical Biochemistry, 331 (2004) 275-282). Non-incorporated 2AA was removed by column chromatography (Discovery DPA-6S). Briefly, the extracted GSLs were digested with EGCase in a 10 ul reaction volume overnight. 40 ul of labeling mix (30 mg/ml 2-AA, 45 mg/ml […] in 4% NaAc and 2% boric acid in methano) were added. The reaction was carried at 80° C. for 45 min. 2AA-labeled glycans were purified by column chromatography (Discovery DPA-6S). The column was preequilibrated with 2×1 ml 97% acetonitrile (ACN) and the sample was loaded by adding 1 ml 97% ACN to the reaction mix. The column was washed 4× with 1 ml 97% ACN and the 2AA-labeled […] were eluted with 2×0.6 ml water. After drying down (SpeedVac), the sample were resuspended and analyzed by normal phase high performance liquid chromatography (NP-HPLC).
# Purified 2AA-GSL glycans were separated on NP-HPLC using a 4.6×250 mm TSK Gel-Amide-80 column (Tosoh Bioscience). The chromatography system consisted of a Waters Alliance 2690/5 separation module and an in-line Waters 2475 fluorescence detector set at Exλ360 nm and Emλ425 nm. All chromatography was performed at 30° C. Solvent A was 20% 100 mM ammonium acetate pH3.85, 80% Acetonitrile, solvent B was 20% 100 mM ammonium acetate pH3.85, 20% ACN and 60% Milli-Q water. The gradient was run from 86% A to 54.7% A in 55 min at flow rate 0.8˜1.2 ml/min (Analytical Biochemistry, 331 (2004) 275-282). Chromatography data was processed using Waters Empower software. Glucose units were determined based on a 2AA-labeled glucose oligomer ladder (Ludger). All 2AA-GSL standards were prepared in house and labeled as glucose units.
# FIGS. 18-25 illustrate the dose dependent effects on individual gangliosides (individual HPLC peaks) of various compounds as determined according to the methods of Example 5, but with additional and slightly altered concentration levels used for test compound dosing.
# [1] = tested on: primary human fibroblasts from Sandhoff patients; assay: GM2 storage in gangliosidosis fibroblasts (Sandhoff), GSL analysis by HPLC; conditions: 30 uM, 13 days of treatment
# Method: (§1) Human gangliosidosis fibroblast cells are obtained e.g., from Coriell Institute for Medical Research (http://ccr.coriell.org). The primary cells are cultured in minimum essential medium (MEM) with 15% fetal bovine serum (FBS) as instructed by the supplier.
# (§2) The fibroblast cells are cultured in 6 well plates at a density of 5.0E05/well in MEM, 15% FBS. The cells are treated with compounds at 30 uM on the next day of culture. The non-selective glycolipid inhibitors PDMP and DGNJ, which inhibit glucosylceramide synthase, are used as control. All the treatments are performed in triplicate. The medium is changed every 5 days with fresh compounds added. After 13 days of treatment with compounds, the cells are harvested for GSL analysis. The conditioned medium is removed, the monolayer is washed with PBS and detached with 5 mM EDTA in PBS. An aliquot of the cell suspension is taken for cell viability count using Viacount.
# The cells are spun down and the cell pellets are resuspended in water for GSL extraction. The cells are homogenized using a homogenizer at 6500 rpm for 30 seconds twice. Gangliosides are extracted from homogenates by using chloroform:methanol:water (4:8:3) followed by partitioning. The ganglioside containing upper phase is taken and dried down in a SpeedVac.
# Purified total GSLs are subjected to endo-glucoceramidase (EGCase II, Sigma) treatment to release free glycans. ˜10 ug protein equivalent GSL is digested with 1 mU EGCaseII in 15 ul incubation buffer containing 50 mM sodium acetate, pH 5.5 and 0.4% TX100. Digestion is performed at 37° C. overnight. Released free glycans are tagged with anthranilic Acid (2-AA, Sigma). A labeling mix is prepared freshly in 4% sodium acetate (NaAc.3H2O) and 2% boric acid/methanol(w/v) by adding 45 mg NaBH3CN first and then adding 30 mg 2AA in a 1 ml solution. 40 ul of this labeling mix is added directly into digestion mix. The labeling is carried out at 80° C. for 45˜60 min. Free labeling reagents are removed by passing the reaction mix through a Discovery DPA-6S (Sigma) column. The DPA-6S column (50 mg) is pre-equilibrated twice with 1 ml acetonitrile (ACN). The reaction mixture is cooled down, 1 ml of 97% ACN is added, and the sample is loaded onto the column. The column is washed with four times with 1 ml of 99% ACN and once with 0.5 ml of 97% ACN. 2AA-glycans are eluted in two time 600 ul water. The eluates are dried down in a SpeedVac and subjected to HPLC analysis.
# (§3) Purified 2-AA-labeled oligosaccharides are analyzed by HPLC an method as described by Neville et al. (Anal. Biochem, 2004, 331:275-282). 2-AA-oligosaccharides are separated by NP-HPLC using a 5 μm 4.6×250 mm TSK gel-Amide 80 column (Tosoh) on a Waters Alliance 2690 separation module equipped with a Waters 2475 fluorescence detector set at Exλ360 nm and Emλ425 nm. Solvent A is 80% ACN and 20% 100 mM ammonium acetate (AmAc), pH 3.85. Solvent B is 60% Milli-Q water, 20% ACN and 20% 100 mM AmAc, pH 3.85. The gradient profile is listed below. Glucose unites are determined based on a 2-AA-labeled glucose ladder (Ludger, UK).
# [2] = tested on: primary human fibroblasts from Tay-Sachs patients; assay: GM2 storage in gangliosidosis fibroblasts (Tay-Sachs), GSL analysis by HPLC; conditions: 30 uM, 13 days of treatment
# Method: as §1
# as §2, with “Viacount. […]” for “Viacount.”
# as §3, with “Solvent A is 80% ACN and 20% 100 mM ammonium acetate (AmAc), pH 3.85. Solvent B is 60% Milli-Q water, 20% ACN and 20% 100 mM AmAc, pH 3.85. The gradient profile is listed below.” left out
# [3] = NCI-H82 cells, HPLC peak area as % of untreated
# [4] = NCI-H82 cells, HPLC peak areas as % of untreated
smiles,measurement,setting,value
"CN(C)c1ccc(-c2nc3c(C(C)(C)C)cc(C(C)(C)C)c(O)c3o2)cc1 [compound 2, 4,6-di-tert-butyl-2-(4-(dimethylamino)phenyl)benzo[d]oxazol-7-ol]",cellular inhibition of specific ganglioside biosynthesis,NCI-H82 cells,inhibition
same,dose dependent reduction effect on ganglioside GD1b,NCI-H82 cells; [3],dose dependent reduction
"CCCCN1C[C@H](O)[C@@H](O)[C@@H](O)[C@H]1CO [DGNJ, N-(n-Butyl) deoxygalactonojirimycin, reference compound]",reduction of GM2 storage in primary human fibroblasts from Sandhoff patients,[1],reduction
"CC(C)CNc1oc(-c2cccs2)nc1C#N [compound 8, 5-(isobutylamino)-2-(thiophen-2-yl)oxazole-4-carbonitrile]",reduction of GM2 storage in primary human fibroblasts from Sandhoff patients,[1],reduction
same,preferential reduction effect on gangliosides GM3 and GD3,NCI-H82 cells; NCI-H82 cells,preferential reduction
"N#Cc1c(-n2ncnc2-c2ccc(F)cc2)sc2c1CCCCC2 [compound 4, 2-(5-(4-fluorophenyl)-1H-1,2,4-triazol-1-yl)-5,6,7,8-tetrahydro-4H-cyclohepta[b]thiophene-3-carbonitrile]",dose dependent reduction effect on ganglioside GD3,NCI-H82 cells; [3],dose dependent reduction
same,reduction in B series gangliosides relative to A series gangliosides,NCI-H82 cells; [4],reduction
"COc1cccc(-c2nc3c(C(C)(C)C)cc(C(C)(C)C)c(O)c3o2)c1OC [compound 20, 4,6-di-tert-butyl-2-(2,3-dimethoxyphenyl)benzo[d]oxazol-7-ol]",reduction of GM2 storage in primary human fibroblasts from Sandhoff patients,[1],reduction
"CC(C)(C)C1=CC(=Nc2ccc(Br)cc2)C=C(C(C)(C)C)C1=O [compound 18, 4-(4-bromophenylimino)-2,6-di-tert-butylcyclohexa-2,5-dienone]",dose dependent reduction effect on ganglioside GM2,NCI-H82 cells; [3],dose dependent reduction
"Cc1cc(OCC(=O)Nc2ccc(N(C)C)cc2)cc(C)c1Cl [compound 21, 2-(4-chloro-3,5-dimethylphenoxy)-N-(4-(dimethylamino)phenyl)acetamide]",reduction of GM2 storage in primary human fibroblasts from Tay-Sachs patients,[2],reduction
"CCCCCCCCCC(=O)NC(CN1CCOCC1)C(O)c1ccccc1 (stereo not drawn) [PDMP, 1-Phenyl-2-decanoylamino-3-morpholino-1-propanol, reference compound]",reduction of GM2 storage in primary human fibroblasts from Sandhoff patients,[1],reduction
same,cellular inhibition of specific ganglioside biosynthesis,NCI-H82 cells,inhibition
"CSc1ccc(-c2ncnn2-c2sc3c(c2C#N)CCCCC3)cc1 [compound 3, 2-(5-(4-(methylthio)phenyl)-1H-1,2,4-triazol-1-yl)-5,6,7,8-tetrahydro-4H-cyclohepta[b]thiophene-3-carbonitrile]",reduction of GM2 storage in primary human fibroblasts from Sandhoff patients,[1],reduction
same,preferential reduction effect on gangliosides GM3 and GD3,NCI-H82 cells; NCI-H82 cells,preferential reduction
"COc1ccc(/C(C)=N/Nc2nc3ccccc3nc2C)cc1OC [compound 19, (E)-2-(2-(1-(3,4-dimethoxyphenyl)ethylidene)hydrazinyl)-3-methylquinoxaline]",reduction of GM2 storage in primary human fibroblasts from Sandhoff patients,[1],reduction
same,dose dependent reduction effect on ganglioside GM1,NCI-H82 cells; [3],dose dependent reduction
"CC(C)(C)c1cc(C(C)(C)C)c2nc(-c3cc(Br)ccc3O)oc2c1O [compound 5, 2-(5-bromo-2-hydroxyphenyl)-4,6-di-tert-butylbenzo[d]oxazol-7-ol]",reduction of GM2 storage in primary human fibroblasts from Sandhoff patients,[1],reduction
same,dose dependent reduction effect on ganglioside GD2,NCI-H82 cells; [3],dose dependent reduction
same,preferential reduction effect on 2 series gangliosides GM2 and GD2 relative to the 3 series gangliosides GM3 and GD3,NCI-H82 cells; [4],preferential reduction
"CC1=C(C(=O)Nc2ccccc2)C(c2ccccc2)C(C#N)=C(SCC(=O)NCc2ccccc2)N1 (stereo not drawn) [compound 7, 6-(2-(benzylamino)-2-oxoethylthio)-5-cyano-2-methyl-N,4-diphenyl-1,4-dihydropyridine-3-carboxamide]",reduction of GM2 storage in primary human fibroblasts from Sandhoff patients,[1],reduction
"Cc1ccc(C=NN2CCN(c3ccc(Cl)cc3)CC2)o1 [compound 17, 4-(4-chlorophenyl)-N-((5-methylfuran-2-yl)methylene)piperazin-1-amine]",reduction of GM2 storage in primary human fibroblasts from Sandhoff patients,[1],reduction
same,cellular inhibition of specific ganglioside biosynthesis,NCI-H82 cells,inhibition
same,dose dependent reduction effect on ganglioside GM3,NCI-H82 cells; [3],dose dependent reduction
"COc1cc(/C=C/c2ccc3cccc(OCc4ccccc4)c3n2)cc([N+](=O)[O-])c1OC(C)=O [compound 15, (E)-4-(2-(8-(benzyloxy)quinolin-2-yl)vinyl)-2-methoxy-6-nitrophenyl acetate]",cellular inhibition of specific ganglioside biosynthesis,NCI-H82 cells,inhibition
